Source: patent US9981986B2, “Antimicrobial compounds” (OXFORD UNIVERSITY INNOVATION LIMITED, priority 2012, dated 2018)
Values after ≈ are worked out from the molar mass of the structure shown.

How the values were obtained:
[1] = test system: Staphylococcus aureus N.C.T.C. 6571; assay: hole-plate method, inhibition zones, S. aureus; assay type: cell-based; conditions: inhibition zone diameter
Method: (§1) Various compounds illustrative of the compounds of the present invention were synthesised and tested for their bioactivity. Microbiological assays were performed by the hole-plate method with the test organism Staphylococcus aureus N.C.T.C. 6571 or E. coli X580. […] The diameters of the resultant inhibition zones were measured.

Candida albicans = assay: MIC determination (fungus), Candida albicans; assay type: cell-based
Method: MIC Determination (Fungus); MICs were determined for the antifungus by microdilution methods using RPMI 1640 medium buffered with morpholinopropanesulfonic acid (MOPS) and supplemented with L-glutamine as described by CLSI procedures (M27-A method) (Reference method for broth dilution antifungal susceptibility testing of yeasts; Approved standard—[…]. 2006, M27-A2, CLSI, Wayne Pa.).

[2] = test system: S. pneumonia 9, (multi-drug resistant); assay: MIC determination (bacteria), P9 / P9B; assay type: cell-based; conditions: for MIC P9: S. pneumonia 9, multi-drug resistant; for MIC P9B: S. pneumonia 9 in presence of 2.5% horse blood
Method: (§2) MIC Determination (Bacteria);
(§3) MICs were determined based on Clinical and Laboratory Standards Institute (CLSI) methodology (Methods for dilution antimicrobial susceptibility tests for bacteria that grow aerobically; Approved Standard—seventh edition. 2006, M7-A7, CLSI, Wayne Pa.) by a 2-fold broth dilution technique in Mueller Hinton (pH7.4 Biorad). For S. pneumoniae, the medium was supplemented with 2.5% laked horse blood. For H. influenzae, the medium was haemophilus test medium (H.T.M.). Overnight cultures were diluted to obtain the final inoculum of 10^5 cfu/well. Incubation was 37° C. overnight in ambient air. The MIC was defined as the lowest concentration which inhibited all visual growth and expressed in μg/ml. For each bacterial species, all of the molecules were tested in the same experiment in order to give a head-to-head comparison.

S. pneumonia UPPS = target: T1, S. pneumonia UPPS (Streptococcus pneumoniae serotype 4, UniProt Q97SR4); assay: In vitro activity against S. pneumonia UPPS; assay type: biochemical; conditions: read-out: UPP IC50
T1 sequence (Q97SR4 1-252): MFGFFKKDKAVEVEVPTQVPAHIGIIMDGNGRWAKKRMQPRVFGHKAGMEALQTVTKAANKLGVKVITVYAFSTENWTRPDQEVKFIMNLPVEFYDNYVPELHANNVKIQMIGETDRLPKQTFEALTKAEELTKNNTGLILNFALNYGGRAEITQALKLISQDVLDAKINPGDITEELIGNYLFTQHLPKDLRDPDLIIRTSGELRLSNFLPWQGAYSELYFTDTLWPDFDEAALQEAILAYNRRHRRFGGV
Text: (§4) These properties can be determined according to techniques that are well known in the art.

[3] = test system: H. influenzae 4, LS2 Efflux ko; assay: MIC determination (bacteria), H4; assay type: cell-based
Method: as §2, §3

[4] = test system: mammalian_red blood cell membrane; assay: In vitro mammalian red blood cell membrane lysis activity; assay type: cell-based; conditions: read-out: RBC IC50
Text: as §4

[5] = test system: S. aureus 1, ATCC13709 in vivo (methicillin sensitive); assay: MIC determination (bacteria), S1; assay type: cell-based
Method: as §2, §3

S. aureus membrane = assay: In vitro activity in depolarization of S. aureus membrane; assay type: cell-based; conditions: read-out: DEP IC50
Text: as §4

[6] = test system: E. faecalis 1, ATCC29212 VanS (vancomycin susceptible); assay: MIC determination (bacteria), E1; assay type: cell-based
Method: as §2, §3

[7] = test system: E. faecium 1, VanA (vancomycin resistant); assay: MIC determination (bacteria), E2; assay type: cell-based
Method: as §2, §3

E. Coli RNAP = E. Coli RNAP (Escherichia coli, UniProt P0A8T7+P0A8V2); assay: In vitro activity against E. Coli RNAP; assay type: biochemical; conditions: read-out: RNA IC50
Chain of E. Coli RNAP (P0A8V2 whole entry): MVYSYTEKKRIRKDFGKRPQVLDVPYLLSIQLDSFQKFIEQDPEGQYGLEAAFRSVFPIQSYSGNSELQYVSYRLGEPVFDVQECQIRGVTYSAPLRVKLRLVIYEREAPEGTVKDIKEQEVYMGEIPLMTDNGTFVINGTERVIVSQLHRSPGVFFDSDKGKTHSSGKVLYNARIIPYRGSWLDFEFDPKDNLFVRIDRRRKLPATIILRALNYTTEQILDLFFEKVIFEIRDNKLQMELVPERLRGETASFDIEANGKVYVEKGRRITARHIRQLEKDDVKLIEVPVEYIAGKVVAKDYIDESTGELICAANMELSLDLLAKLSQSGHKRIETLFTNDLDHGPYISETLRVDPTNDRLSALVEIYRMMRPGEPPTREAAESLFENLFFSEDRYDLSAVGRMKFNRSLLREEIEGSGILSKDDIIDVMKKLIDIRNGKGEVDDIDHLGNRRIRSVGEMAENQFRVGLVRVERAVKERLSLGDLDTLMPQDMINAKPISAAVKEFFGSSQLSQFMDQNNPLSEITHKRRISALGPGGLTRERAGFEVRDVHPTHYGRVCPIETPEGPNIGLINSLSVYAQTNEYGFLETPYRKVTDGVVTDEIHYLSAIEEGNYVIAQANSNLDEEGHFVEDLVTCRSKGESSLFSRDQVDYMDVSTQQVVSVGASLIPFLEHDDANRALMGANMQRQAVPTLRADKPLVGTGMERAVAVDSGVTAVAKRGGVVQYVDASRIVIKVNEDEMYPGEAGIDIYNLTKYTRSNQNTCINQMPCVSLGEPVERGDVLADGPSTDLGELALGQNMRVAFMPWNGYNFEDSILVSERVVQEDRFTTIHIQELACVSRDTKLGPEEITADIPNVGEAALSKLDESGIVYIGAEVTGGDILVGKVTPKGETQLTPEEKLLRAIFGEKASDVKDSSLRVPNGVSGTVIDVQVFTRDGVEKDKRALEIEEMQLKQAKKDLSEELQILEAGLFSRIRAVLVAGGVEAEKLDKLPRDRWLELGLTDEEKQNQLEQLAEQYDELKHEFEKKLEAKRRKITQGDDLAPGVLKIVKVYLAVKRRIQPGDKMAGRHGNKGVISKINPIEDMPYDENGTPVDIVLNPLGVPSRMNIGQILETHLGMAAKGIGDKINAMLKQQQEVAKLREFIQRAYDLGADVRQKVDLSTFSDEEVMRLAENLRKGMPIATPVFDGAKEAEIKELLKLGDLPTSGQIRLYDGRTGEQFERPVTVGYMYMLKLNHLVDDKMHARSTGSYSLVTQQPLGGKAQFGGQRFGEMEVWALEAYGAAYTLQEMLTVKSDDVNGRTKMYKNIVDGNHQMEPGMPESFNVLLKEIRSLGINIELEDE
Chain of E. Coli RNAP (P0A8T7 whole entry): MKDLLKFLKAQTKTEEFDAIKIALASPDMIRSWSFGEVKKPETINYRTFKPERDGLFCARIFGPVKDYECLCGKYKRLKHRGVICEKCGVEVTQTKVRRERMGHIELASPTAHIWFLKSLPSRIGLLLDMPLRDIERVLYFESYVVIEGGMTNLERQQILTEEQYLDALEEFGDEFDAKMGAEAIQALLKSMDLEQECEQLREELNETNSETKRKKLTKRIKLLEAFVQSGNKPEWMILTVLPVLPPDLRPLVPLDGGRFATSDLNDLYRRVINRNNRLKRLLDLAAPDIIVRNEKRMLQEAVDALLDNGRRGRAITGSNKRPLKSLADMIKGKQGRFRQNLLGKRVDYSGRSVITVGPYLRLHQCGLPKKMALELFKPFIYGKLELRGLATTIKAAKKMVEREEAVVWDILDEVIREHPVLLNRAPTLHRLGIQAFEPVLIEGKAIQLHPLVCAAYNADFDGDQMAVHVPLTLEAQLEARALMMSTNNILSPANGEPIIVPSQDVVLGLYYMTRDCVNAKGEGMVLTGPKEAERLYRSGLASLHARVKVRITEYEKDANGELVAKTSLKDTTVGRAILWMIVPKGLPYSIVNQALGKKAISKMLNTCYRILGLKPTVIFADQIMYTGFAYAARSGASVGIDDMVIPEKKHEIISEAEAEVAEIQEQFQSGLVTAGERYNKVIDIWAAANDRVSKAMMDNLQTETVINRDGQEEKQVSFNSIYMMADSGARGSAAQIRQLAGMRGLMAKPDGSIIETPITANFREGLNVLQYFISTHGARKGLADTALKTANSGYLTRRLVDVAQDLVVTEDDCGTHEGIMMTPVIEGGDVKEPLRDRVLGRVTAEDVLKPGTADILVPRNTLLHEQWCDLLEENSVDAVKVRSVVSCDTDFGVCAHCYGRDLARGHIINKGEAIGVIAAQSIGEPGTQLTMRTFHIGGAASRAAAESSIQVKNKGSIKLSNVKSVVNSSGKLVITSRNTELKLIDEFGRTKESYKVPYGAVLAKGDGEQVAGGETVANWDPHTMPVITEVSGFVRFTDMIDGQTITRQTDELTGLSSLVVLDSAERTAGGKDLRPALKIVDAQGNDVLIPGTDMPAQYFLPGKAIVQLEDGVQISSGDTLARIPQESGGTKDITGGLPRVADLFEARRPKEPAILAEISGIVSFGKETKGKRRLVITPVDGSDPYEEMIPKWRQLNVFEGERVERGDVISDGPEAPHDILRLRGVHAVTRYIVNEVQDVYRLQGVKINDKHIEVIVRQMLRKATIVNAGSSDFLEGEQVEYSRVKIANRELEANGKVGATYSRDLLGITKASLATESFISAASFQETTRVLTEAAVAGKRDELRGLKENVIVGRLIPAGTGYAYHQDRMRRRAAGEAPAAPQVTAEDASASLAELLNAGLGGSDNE
Chain of E. Coli RNAP (P0A7Z4 whole entry partner): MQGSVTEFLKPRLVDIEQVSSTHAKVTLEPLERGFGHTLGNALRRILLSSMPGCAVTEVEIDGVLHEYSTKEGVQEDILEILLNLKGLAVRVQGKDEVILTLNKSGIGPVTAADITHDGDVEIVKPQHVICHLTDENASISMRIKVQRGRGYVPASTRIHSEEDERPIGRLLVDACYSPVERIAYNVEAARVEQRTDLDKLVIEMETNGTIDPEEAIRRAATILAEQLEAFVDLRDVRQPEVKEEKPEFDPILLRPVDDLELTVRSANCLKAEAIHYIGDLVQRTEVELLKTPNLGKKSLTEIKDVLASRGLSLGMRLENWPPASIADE
Chain of E. Coli RNAP (P0A800 whole entry partner): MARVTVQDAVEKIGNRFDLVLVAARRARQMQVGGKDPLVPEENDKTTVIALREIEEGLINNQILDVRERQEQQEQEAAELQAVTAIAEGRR
Text: as §4

[8] = test system: S. aureus 2, (MRSA in vivo); assay: MIC determination (bacteria), S2; assay type: cell-based
Method: as §2, §3

[9] = test system: human peripheral blood cells; assay: in vitro toxicities human peripheral blood cells; assay type: cell-based
Text: as §4

S. aureus 4, Oxford = assay: MIC determination (bacteria), S4; assay type: cell-based
Method: as §2, §3

[10] = test system: human embryonic kidney 293 cells; assay: in vitro toxicities against human embryonic kidney 293 cells; assay type: cell-based
Text: as §4

[11] = assay type: physicochemical; conditions: pH 7.4
Text: as §4

[12] = test system: S. pneumonia 1, ATCC49619 (erythromycin susceptible); assay: MIC determination (bacteria), P1; assay type: cell-based
Method: as §2, §3

[13] = test system: S. aureus 26, ATCC25923 (vancomycin susceptible); assay: MIC determination (bacteria), S26; assay type: cell-based
Method: as §2, §3

[14] = test system: H. influenzae 3, ATCC31517 MMSA; assay: MIC determination (bacteria), H3; assay type: cell-based
Method: as §2, §3

E. coli X580 = assay: hole-plate method, inhibition zones, E. coli; assay type: cell-based; conditions: inhibition zone diameter
Method: as §1

plasma protein = assay type: in vitro ADME
Text: as §4

Structure (SMILES): CCOC(=O)C1=C(O)C2CSC(c3cccc(Br)c3)N2C1=O (stereo not shown)
- Bioactivity (mm) S. aureus (4 mg/ml) ([1]; Cm): 2.0 Cm

Structure (SMILES): CC(C)(C)C1OCC2(C)C(=O)C(C(=O)NC34CC5CC(CC(C5)C3)C4)C(=O)N12 (racemic) [(±)-2A]
- CAN MIC (Candida albicans): >32 µg/mL
- MIC P9 [2]: 1 µg/mL (≈ 2.57 µM)
- MIC P9B [2]: 1 µg/mL
- IC50 (S. pneumonia UPPS): 0.38 µM
- MIC H4 [3]: 1 µg/mL (≈ 2.57 µM)
- IC50 [4]: > 100 µM
- MIC S1 [5]: 1 µg/mL (≈ 2.57 µM)
- IC50 (S. aureus membrane): 10.8 µM
- MIC E1 [6]: 1 µg/mL (≈ 2.57 µM)
- MIC E2 [7]: 1 µg/mL (≈ 2.57 µM)
- IC50 (E. Coli RNAP): 17 µM
- MIC S2 [8]: 1 µg/mL (≈ 2.57 µM)
- PMB LD50 [9]: 30.3 µM
- MIC S4 (S. aureus 4, Oxford): 1 µg/mL (≈ 2.57 µM)
- HEK LD50 [10]: 30.3 µM
- SOL [11]: 75 to 150 µM
- MIC P1 [12]: 1 µg/mL (≈ 2.57 µM)
- MIC S26 [13]: 2 µg/mL (≈ 5.15 µM)
- MIC H3 [14]: 2 µg/mL (≈ 5.15 µM)

Structure (SMILES): O=C(NC12CC3CC(CC(C3)C1)C2)C1=C(O)C2CS[C@@H](c3ccccc3)N2C1=O (stereo partly shown)
- Bioactivity (mm) S. aureus 0.01 mg/ml [1]: 22 mm
- Bioactivity (mm) E. coli 0.001 mg/ml (E. coli X580; 0.001 mg/ml): 15 mm
- Bioactivity (mm) E. coli 0.01 mg/ml (E. coli X580): 15 mm

Structure (SMILES): Cc1cc(Cl)ccc1NC(=O)C1=C(O)C2CS[C@@H](c3ccc(Br)cc3)N2C1=O (stereo partly shown)
- Bioactivity (mm) S. aureus 0.25 mg/ml [1]: 25 mm
- Bioactivity (mm) S. aureus 0.5 mg/ml [1]: 26 mm

Structure (SMILES): CCOC(=O)C1=C(O)C2CSC(c3ccc(Br)cc3)N2C1=O (stereo not shown)
- Bioactivity (mm) S. aureus (4 mg/ml) ([1]; Cm): 1.7 Cm

Structure (SMILES): O=C(NC12CC3CC(CC(C3)C1)C2)C1=C(O)C2CS[C@@H](c3ccc([N+](=O)[O-])cc3)N2C1=O (stereo partly shown)
- Bioactivity (mm) S. aureus 0.001 mg/ml [1]: 19 mm
- Bioactivity (mm) S. aureus 0.01 mg/ml [1]: 25 mm
- Bioactivity (mm) E. coli 0.01 mg/ml (E. coli X580): 14 mm

Structure (SMILES): CCOC(=O)CC(=O)N1C(c2ccc(F)cc2Cl)SC[C@@H]1C(=O)OC (stereo partly shown)
- Bioactivity (mm) E. coli (4 mg/ml) (E. coli X580; 4 mg/ml): 16 mm

Structure (SMILES): CC(C)(C)C1OCC2(C)C(O)=C(C(=O)NCC3CCCCC3)C(=O)N12 (racemic) [(±)-2E]
- PPB (plasma protein): 96.6%
- CAN MIC (Candida albicans): >32 µg/mL
- MIC P9 [2]: 1 µg/mL (≈ 2.85 µM)
- MIC P9B [2]: 1 µg/mL
- IC50 (S. pneumonia UPPS): 0.68 µM
- MIC H4 [3]: 0.12 µg/mL (≈ 0.342 µM)
- IC50 [4]: > 100 µM
- MIC S1 [5]: 4 µg/mL (≈ 11.4 µM)
- IC50 (S. aureus membrane): 84.3 µM
- MIC E1 [6]: 2 µg/mL (≈ 5.71 µM)
- MIC E2 [7]: 1 µg/mL (≈ 2.85 µM)
- IC50 (E. Coli RNAP): 31 µM
- MIC S2 [8]: 2 µg/mL (≈ 5.71 µM)
- PMB LD50 [9]: 90.9 µM
- MIC S4 (S. aureus 4, Oxford): 4 µg/mL (≈ 11.4 µM)
- HEK LD50 [10]: 90.9 µM
- SOL [11]: >300 µM
- MIC P1 [12]: 2 µg/mL (≈ 5.71 µM)
- MIC S26 [13]: 4 µg/mL (≈ 11.4 µM)
- MIC H3 [14]: 4 µg/mL (≈ 11.4 µM)

Structure (SMILES): O=C(NC12CC3CC(CC(C3)C1)C2)C1=C(O)C2CS[C@@H](c3ccc(F)cc3Cl)N2C1=O (stereo partly shown)
- Bioactivity (mm) S. aureus 0.001 mg/ml [1]: 21 mm
- Bioactivity (mm) S. aureus 0.01 mg/ml [1]: 25 mm
- Bioactivity (mm) E. coli 0.01 mg/ml (E. coli X580): 14 mm

Structure (SMILES): CCOC(=O)C1=C(O)C2CSC(c3ccc(CO[Si](C)(C)C(C)(C)C)cc3)N2C1=O (stereo not shown)
- Bioactivity (mm) S. aureus (4 mg/ml) ([1]; Cm): 2.3 Cm

Structure (SMILES): O=C(NC12CC3CC(CC(C3)C1)C2)C1=C(O)C2CS[C@@H](c3ccc(F)cc3)N2C1=O (stereo partly shown)
- Bioactivity (mm) S. aureus 0.001 mg/ml [1]: 21 mm
- Bioactivity (mm) S. aureus 0.01 mg/ml [1]: 27 mm
- Bioactivity (mm) E. coli 0.01 mg/ml (E. coli X580): 14 mm

Structure (SMILES): CCOC(=O)C1=C(O)C2CS[C@@H](c3ccc(F)cc3Cl)N2C1=O (stereo partly shown)
- Bioactivity (mm) S. aureus (4 mg/ml) [1]: 18 mm

Structure (SMILES): CC(C)(C)[Si](C)(C)OCc1ccc([C@@H]2SCC3C(O)=C(C(=O)NC45CC6CC(CC(C6)C4)C5)C(=O)N32)cc1 (stereo partly shown)
- Bioactivity (mm) S. aureus 0.25 mg/ml [1]: 12 mm
- Bioactivity (mm) S. aureus 0.5 mg/ml [1]: 13 mm

Structure (SMILES): CCOC(=O)C12C(=O)C(=C(O)CC(C)(C)CC(=O)OCCC34CC5CC(CC(C5)C3)C4)C(=O)N1C(C(C)(C)C)OC2C (racemic) [Compound 6G]
- CAN MIC (Candida albicans): >32 µg/mL
- MIC P9 [2]: 1 µg/mL (≈ 1.7 µM)
- MIC P9B [2]: 4 µg/mL
- IC50 (S. pneumonia UPPS): 1.9 µM
- MIC H4 [3]: 2 µg/mL (≈ 3.4 µM)
- IC50 [4]: > 100 µM
- MIC S1 [5]: 0.5 µg/mL (≈ 0.851 µM)
- IC50 (S. aureus membrane): > 100 µM
- MIC E1 [6]: 1 µg/mL (≈ 1.7 µM)
- MIC E2 [7]: 0.5 µg/mL (≈ 0.851 µM)
- IC50 (E. Coli RNAP): 2.4 µM
- MIC S2 [8]: 0.5 µg/mL (≈ 0.851 µM)
- PMB LD50 [9]: >90.9 µM
- MIC S4 (S. aureus 4, Oxford): 1 µg/mL (≈ 1.7 µM)
- HEK LD50 [10]: 10.1 µM
- SOL [11]: >300 µM
- MIC P1 [12]: 2 µg/mL (≈ 3.4 µM)
- MIC S26 [13]: 1 µg/mL (≈ 1.7 µM)
- MIC H3 [14]: >64 µg/mL

Structure (SMILES): CCOC(=O)C1=C(O)C2CS[C@@H](c3ccc([N+](=O)[O-])cc3)N2C1=O (stereo partly shown)
- Bioactivity (mm) S. aureus (4 mg/ml) [1]: 16 mm

Structure (SMILES): CCOC(=O)C12C(=O)C(=C(O)CC34CC5CC(C)(CC(C)(C5)C3)C4)C(=O)N1C(C(C)(C)C)OC2C (racemic) [Compound 6C]
- PPB (plasma protein): 99.8%
- CAN MIC (Candida albicans): >32 µg/mL
- MIC P9 [2]: 0.5 µg/mL (≈ 1.03 µM)
- MIC P9B [2]: 1 µg/mL
- IC50 (S. pneumonia UPPS): 3.2 µM
- MIC H4 [3]: 0.25 µg/mL (≈ 0.513 µM)
- IC50 [4]: > 100 µM
- MIC S1 [5]: 2 µg/mL (≈ 4.1 µM)
- IC50 (S. aureus membrane): > 100 µM
- MIC E1 [6]: 2 µg/mL (≈ 4.1 µM)
- MIC E2 [7]: 1 µg/mL (≈ 2.05 µM)
- IC50 (E. Coli RNAP): 4 µM
- MIC S2 [8]: 1 µg/mL (≈ 2.05 µM)
- PMB LD50 [9]: >90.9 µM
- MIC S4 (S. aureus 4, Oxford): 2 µg/mL (≈ 4.1 µM)
- HEK LD50 [10]: 90.9 µM
- SOL [11]: >300 µM
- MIC P1 [12]: 0.5 µg/mL (≈ 1.03 µM)
- MIC S26 [13]: 2 µg/mL (≈ 4.1 µM)
- MIC H3 [14]: 64 µg/mL (≈ 131 µM)
